From patent US20160186209A1, “RECOMBINANT CELLS AND METHODS OF USING SUCH CELLS TO IDENTIFY CIRCADIAN RHYTHM MODULATORS” (University of Memphis Research Foundation, priority 2012, published 2016)

Legend:
[1] = tested on: Differentiated 3T3-L1 cells (ERK phosphorylation); test: Insulin-induced ERK phosphorylation (Western blot), differentiated 3T3-L1 cells; assay type: cell-based, mouse; details: 0.1 nM insulin for 5 minutes
Description: (§1) FIGS. 1A-1C are graphs showing that fibroblasts, adipocytes, and hepatocytes display bioluminescence rhythms. […] Reporter cells were generated via lentiviral infection of either Per2-dLuc or Bmal1-dLuc luciferase reporter, and infected cell populations were recorded in a LumiCycle. Baseline-subtracted bioluminescence data of both reporter lines are plotted together to show the expected, approximately anti-phasic reporter expression for each cell type. […] Baseline-subtracted bioluminescence data of selected clonal lines representing both reporter types are plotted together to show anti-phasic reporter expression for each cell type. High reproducibility is illustrated by showing data from 24 of the 96 wells for each reporter. […] Differentiated 3T3-L1 and MMH-D3 cells were treated with 0.1, 1, or 10 nM insulin for 5, 15, or 30 minutes, followed by cell lysis and Western blot analysis with ERK and pERK antibodies. […] Data are representative of two independent experiments.
(§2) To develop new models, a battery of luciferase-based reporters that can be introduced into cells via transient transfection or lentiviral transduction was engineered. To explore cell type specificity of clock gene function, new reporter cell lines comprising lentiviral luciferase reporter driven either by the Per2 or Bmal1 promoters were developed. […]

[2] = tested on: Differentiated MMH-D3 cells (ERK phosphorylation); test: Insulin-induced ERK phosphorylation (Western blot), differentiated MMH-D3 cells; assay type: cell-based; details: 0.1 nM insulin for 5 minutes
Description: as §1, §2

For insulin, the “ERK activation as reflected by its phosphorylation” value [1] was “sufficient to activate ERK” and the “ERK activation as reflected by its phosphorylation” value [2] was “sufficient to activate ERK”.
